Where two headings read alike, the source gives them in different places. Some results are limits rather than exact numbers.

One data set is described as follows: in vivo. Particulars: mouse, po. Here is the method: Acute toxicity by oral route was investigated using ICR-JCL mice.
The compounds of the present invention, Compound Nos. 1, 2, 13, 14, 33, 34, 41, 42, 47, 48, 53, 54, 67, and 68, were dissolved or dispersed in polyethylene glycol 200 or physiological saline. The solution or suspension was given in a prescribed amount by means of a syringe or a stomach tube.

The test system of data set [1] is spontaneous mastocarcinoma. The data set can be described thus: Antitumor effects: tumor growth inhibition in rats with mastocarcinoma. It is filed as in vivo, Sprague-Dawley rats. Particulars: Rattus norvegicus, ip, read-out: Tumor growth inhibition rate (%). Here is the method: Fifty-day-old female Sprague-Dawley rats were orally given 7,12-dimethylbenzanthracene (15 mg/kg) and observed for two months. Those rats developing spontaneous mastocarcinoma were selected and divided into groups each consisting of 15 animals: groups each of which is to be given a different compound of the present invention; a group to be given a control compound; and a control group to be given a simple physiological saline solution. Each group was intraperitoneally given the corresponding physiological saline solution or dispersion in an amount of 25 mg/kg daily for 20 consecutive days. Five days after the last administration, the rats were sacrificed to weigh the tumors. The mean tumor weight (T) of the 15 rats of each of the groups which had been given compounds of the present invention or the control compound, and the mean tumor weight (C) of the 15 rats of the control group which had been given a simple physiological saline solution were calculated. The tumor growth inhibition rate of each group was calculated on the basis of the following formula:
Tumor Growth Inhibition Rate (%) = {1-T/C)} × 100. Positive control is 4-hydroxyandrostenedione.

Data set [2] relates to Candida albicans (IFO 1060). Put plainly: Antimycotic activity: survival of mice infected with Candida albicans. It is filed as in vivo. Particulars: IFO1060, 480 h, female ICR mice, oral, 100 mg/kg day for 5 consecutive days, observed for 20 days, control and solvent control 20, read-out: Survival Rate (%). The procedure:
The evaluation of antimycotic activity can be carried out by administering a dosage of the compound in […] that have been inoculated with a strain of Candida albicans, preferably orally, and observing the mortality of the inoculated mice for 20 days.
The survival rate was calculated from the mean survival days.
Five-week-old female ICR mice of 10 animals per group were infected with Candida albicans (IFO 1060) in an amount of 4.8×10^6 cfu (colony forming unit)/mouse through a tail vein.
After one hour following the introduction of the infection, a solution of each compound (see Table 8 below) in polyethylene glycol 200 was orally administered for 5 consecutive days in the amount of 100 mg/kg day.
In Table 8, the solvent group was administered only with polyethylene glycol.

For the next data set, the target named is T1, aromatase (Homo sapiens, UniProt P11511).
T1 construct: human placenta microsomes (a protein concentration of 0.1 mg/ml); from tissue; host or cells: human placenta microsomes
T1 sequence (P11511 1-503): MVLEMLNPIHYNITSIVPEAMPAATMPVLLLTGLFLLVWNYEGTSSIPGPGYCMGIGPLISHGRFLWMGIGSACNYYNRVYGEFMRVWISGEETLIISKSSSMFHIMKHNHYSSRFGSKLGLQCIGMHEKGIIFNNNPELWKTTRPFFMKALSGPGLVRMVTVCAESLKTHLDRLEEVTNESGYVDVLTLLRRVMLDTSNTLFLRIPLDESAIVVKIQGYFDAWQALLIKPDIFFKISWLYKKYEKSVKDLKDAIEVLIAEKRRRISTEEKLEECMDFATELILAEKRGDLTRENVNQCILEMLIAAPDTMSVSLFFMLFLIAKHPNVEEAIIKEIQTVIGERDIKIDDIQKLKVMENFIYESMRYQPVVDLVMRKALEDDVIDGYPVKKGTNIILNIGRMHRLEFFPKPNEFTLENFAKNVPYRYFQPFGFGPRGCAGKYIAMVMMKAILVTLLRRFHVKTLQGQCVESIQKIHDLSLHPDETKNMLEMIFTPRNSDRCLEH
Put plainly: Aromatase inhibitory activity (human placenta microsomes, [19-14C]4-androstene-3,17-dione). It is filed as biochemical. The procedure: The aromatase enzyme-inhibitory activity was determined in the manner described by Covey, D. F., Biochem. Biophys. Res. Commu., 157 (1), 81-86, 1988. More specifically, the aromatase-inhibitory activity of a compound of formula (I) was evaluated in terms of the concentration (IC50) of the compound causing 50% inhibition of the aromatase activity.
Aromatase activity was determined in the manner described by Covey, D. F., Biochem. Biophys. Res. Commun. 157 (1), 81-86 (1988).
Aromatase inhibitory activity of the compounds was evaluated in the 50% aromarase-inhibitory concentration (IC50). Microsomes of human-placenta and [19-^14 C]4-androstene-3,17 dione were used as an aromatase source and a substrate, respectively.
The radioactivity of H^14 COOH which was released into a reaction mixture as a result of aromatization was measured to evaluate the aromatase activity.
The aromatase inhibitory activity and the concentration of each compound was depicted in a graph, from which the IC50 was determined.
[19-^14 C]4-Androstene-3,17-dione (1×10^-6 M, 2 KBq/ml), human placenta microsomes (a protein concentration of 0.1 mg/ml), coenzyme NADP (2×10^-3 M), glucose-6-phosphoric acid (4×10^-3 M), and glucose-6-phosphoric acid dehydrogenase (4U/ml) were added to a phosphoric acid buffer solution (67 mM, pH 7.2, 0.5 ml) and reacted at 37° C. for 30 minutes while the mixture was being shaken.
The test compound dissolved in DMSO was added to the reaction mixture and the final concentration of DMSO was in the range of 0.1 to 0.55% by volume per volume.
Chloroform (5 ml) was then added to the reaction mixtures to cease the reaction. The H^14 COOH, which had been released into a reaction mixture, was recovered in a water layer by stirring the reaction mixture. The water layer (0.1 ml) was added to a liquid scintillation cocktail (Atomlight, Dupont, 4 ml) to measure its radioactivity.
The positive control is 4-hydroxyandrostenedione.

[3] abbreviates: female Sprague-Dawley rats given 7,12-dimethylbenzanthracene, intraperitoneal, 25 mg/kg daily for 20 consecutive days, mean tumor weight vs saline control.
[4] abbreviates: human placenta microsomes, substrate 1×10^-6 M, pH 7.2, 37° C., 30 minutes, read-out: IC50.

Take `CC1OCC(Cc2ccc(F)cc2)C1(O)Cn1cncn1` (stereo not drawn) [Compound No. 1, 4-(4-fluorobenzyl)-3-hydroxy-2-methyl-3-(1H-1,2,4-triazol-1-ylmethyl) tetrahydrofuran]: in “in vivo”, the LD50 – broadly, the dose at which mortality reaches 50% – at 168 h was more than 1000 mg/kg. Further, in data set [1] (setting [3]), the inhibition in vivo at 25 mg/kg was 60%. Besides, the responders at 100 mg/kg in data set [2] was 40%. For the same molecule, the IC50 (in general, the concentration needed to halve the response being measured) on aromatase is 6000 nM.
`CC1(C)OCC(Cc2ccc(F)cc2)C1(O)Cn1cncn1` (stereo not drawn) [Compound No. 13, 4-(4-fluorobenzyl)-3-hydroxy-2,2-dimethyl-3 (1H-1,2,4-triazole-1-ylmethyl) tetrahydrofuran] showed an LD50 at 168 h in the data set “in vivo” of more than 1000 mg/kg. Moreover, the inhibition in vivo at 25 mg/kg in data set [1] (setting [3]) worked out at 58%. In addition, in data set [2], the responders at 100 mg/kg is 55%. This molecule came in with an IC50 at aromatase of 5300 nM.
In turn, `CC1(C)OCC(Cc2ccc(F)cc2)C1(O)Cn1ccnc1` (stereo not drawn) [Compound No. 14, 4-(4-fluorobenzyl)-3-hydroxy-3-(imidazol-1-ylmethyl)-2,2-dimethyltetrahydrofuran] registered an LD50 at 168 h in “in vivo” of more than 1000 mg/kg. Further, the inhibition in vivo at 25 mg/kg in data set [1] (setting [3]) was 63%. In data set [2], the responders at 100 mg/kg turned out to be 70%. The same molecule showed an IC50 against aromatase of 480 nM.
For `CC1(C)OCC(Cc2ccc(Cl)cc2)C1(O)Cn1cncn1` (stereo not drawn) [Compound No. 33, 4-(4-chlorobenzyl)-3-hydroxy-2,2-dimethyl-3-(1H-1,2,4-triazol-1-ylmethyl) tetrahydrofuran] the same measures were more than 1000 mg/kg, 65%, 60% and 7000 nM.
In the case of `CC1(C)OCC(Cc2ccc(Cl)cc2)C1(O)Cn1ccnc1` (stereo not drawn) [Compound No. 34, 4-(4-chlorobenzyl)-3-hydroxy-3-(1H-imidazol-l-ylmethyl) -2,2-dimethyltetrahydrofuran], the LD50 at 168 h in “in vivo” was more than 1000 mg/kg. In addition, in data set [1] (setting [3]), the inhibition in vivo at 25 mg/kg came to 80%. Also, in data set [2], the responders at 100 mg/kg turned out to be 80%. On aromatase, this molecule had an IC50 of 500 nM.
In “in vivo”, `CC1(C)OCC(Cc2ccc(C#N)cc2)C1(O)Cn1cncn1` (stereo not drawn) [Compound No. 53] had an LD50 at 168 h of more than 1000 mg/kg. For the same molecule, in data set [1] (setting [3]), the inhibition in vivo at 25 mg/kg is 60%. Besides, the responders at 100 mg/kg in data set [2] was found to be 42%. The same molecule returned a half-inhibitory concentration (IC50) on aromatase of 1200 nM.
In the data set “in vivo”, `CC1(C)OCC(Cc2ccc(C#N)cc2)C1(O)Cn1ccnc1` (stereo not drawn) [Compound No. 54] yielded an LD50 at 168 h of more than 1000 mg/kg. The inhibition in vivo at 25 mg/kg in data set [1] (setting [3]) is 73%. Besides, the responders at 100 mg/kg in data set [2] turned out to be 40%. The IC50 on aromatase (setting [4]) worked out at 1000 nM.
With `CC1(C)OCC(Cc2ccccc2-c2ccccc2)C1(O)Cn1cncn1` (stereo not drawn) [Compound No. 67], the LD50 at 168 h in the data set “in vivo” was more than 1000 mg/kg. Further, in data set [1] (setting [3]), the inhibition in vivo at 25 mg/kg stood at 74%. For the same molecule, the responders at 100 mg/kg in data set [2] is 53%. For the same molecule, the IC50 at aromatase came to 4700 nM.
`CC1(C)OCC(Cc2ccccc2-c2ccccc2)C1(O)Cn1ccnc1` (stereo not drawn) [Compound No. 68] came in with an LD50 at 168 h in “in vivo” of more than 1000 mg/kg. Further, in data set [1] (setting [3]), the inhibition in vivo at 25 mg/kg is 85%. Also, the responders at 100 mg/kg in data set [2] worked out at 62%. The IC50 on aromatase (setting [4]) is 350 nM.
`C[C@]12CCC(=O)C(O)=C1CC[C@@H]1[C@@H]2CC[C@]2(C)C(=O)CC[C@@H]12` [Positive Control, 4-hydroxyandrostenedione, reference compound]: the inhibition in vivo at 25 mg/kg in data set [1] turned out to be 48%.
The molecule `CC1OCC(Cc2ccc(F)cc2)C1(O)Cn1ccnc1` (stereo not drawn) [compound 2, 4-(4-fluorobenzyl)-3-hydroxy-3-(imidazol-1-ylmethyl)-2-methyl tetrahydrofuran] returned an LD50 at 168 h in the data set “in vivo” of more than 1000 mg/kg. The inhibition in vivo at 25 mg/kg in data set [1] (setting [3]) came out at 54%. Also, in data set [2], the responders at 100 mg/kg stood at 55%. Besides, the IC50 at aromatase (setting [4]) was 530 nM.
For `OC1(Cn2cncn2)COCC1Cc1ccc(F)cc1` (stereo not drawn) [compound 21], the inhibition in vivo at 25 mg/kg in data set [1] (setting [3]) stood at 72%. Also, the responders at 100 mg/kg in data set [2] was 37%. Further, the IC50 at aromatase (setting [4]) is 4700 nM.
For `OC1(Cn2ccnc2)COCC1Cc1ccc(F)cc1` (stereo not drawn) [compound 22] the same measures were 75%, 46% and 630 nM.
On to `CC1(C)OCC(Cc2ccc(F)cc2F)C1(O)Cn1cncn1` (stereo not drawn) [compound 41], for which the LD50 at 168 h in “in vivo” is more than 1000 mg/kg. For the same molecule, the inhibition in vivo at 25 mg/kg in data set [1] (setting [3]) is 48%. In addition, the responders at 100 mg/kg in data set [2] was 56%. The molecule also had an IC50 against aromatase of 3000 nM.
For `CC1(C)OCC(Cc2ccc(F)cc2F)C1(O)Cn1ccnc1` (stereo not drawn) [compound 42], in “in vivo”, the LD50 at 168 h was more than 1000 mg/kg. Further, in data set [1] (setting [3]), the inhibition in vivo at 25 mg/kg turned out to be 56%. The responders at 100 mg/kg in data set [2] turned out to be 63%. The concentration for half-maximal inhibition (IC50) at aromatase turned out to be 270 nM.
For `CC1(C)OCC(Cc2ccc(Cl)cc2Cl)C1(O)Cn1cncn1` (stereo not drawn) [compound 47], in that order: more than 1000 mg/kg, 55%, 58% and 1000 nM.
For `CC1(C)OCC(Cc2ccc(Cl)cc2Cl)C1(O)Cn1ccnc1` (stereo not drawn) [compound 48] the same measures were more than 1000 mg/kg, 70%, 53% and 1500 nM.
